Results reported in ChEMBL document CHEMBL1157539, “Thousands of chemical starting points for antimalarial lead identification” (Nature, 2010).
Where “and” joins values, the source holds several entries; their conditions need not be identical. Identical values can stand only once.

Tested on: Plasmodium falciparum
Assay: GSK_TCMDC: Inhibition of Plasmodium falciparum 3D7 in whole erythrocytes, using parasite LDH activity as an index of growth.
Assay type: functional, organism-based

| SMILES | XC50 | XC50 (Plasmodium falciparum, 3D7) |
| --- | --- | --- |
| O=C(/C=C/c1ccc([N+](=O)[O-])cc1)NC1CCC(CN2CCC(c3c[nH]c4ccccc34)CC2)CC1 (stereo not given) | 835 nM | 794 nM |
| O[C@@H](c1cc(C(F)(F)F)nc2c(C(F)(F)F)cccc12)[C@H]1CCCCN1 | 69.2 nM | 73.7 nM |
| N#Cc1ccc2c(c1)CN(CC[C@H]1CC[C@H](NC(=O)/C=C/c3c[nH]c4ccccc34)CC1)CC2 | 897 nM | 986 nM |
| Cc1[nH]c(C)c(-c2ccc(Oc3ccc(OC(F)(F)F)cc3)cc2)c(=O)c1Br | 563 nM and 112 nM | – |
| COc1ccc2ncc(F)c(C(O)CN3CCC(NCc4ccc5c(n4)NC(=O)CO5)CC3)c2c1 (stereo not given) | 1110 nM and 367 nM | – |
| Cc1cc(I)ccc1Nc1nc2nonc2nc1Nc1ccc(I)cc1C | – | 510 nM |
| Cc1nc2c(c(O)c1Cl)-c1ccc(Oc3cccc(C(F)(F)F)c3)cc1C2=O | 36.9 nM | – |
| C/C=C1\CN2CC[C@H]1C[C@H]2[C@H](O)c1ccnc2ccc(OC)cc12 | 219 nM | – |
| COc1cc(Cc2cnc(N)nc2N)ccc1OCc1ccc(-c2csnn2)cc1 | – | 628 nM |
| C#CCOc1ccc(CC(C)NCC(O)c2cccc(C(F)(F)F)c2)cc1 (stereo not given) | 1190 nM | 1030 nM |
| CCC(CC(NCCCCNC(=O)c1ccc(NC(=O)c2ccc(Cl)cc2)cc1)c1ccccc1)c1ccccc1OC (stereo not given) | 666 nM | 792 nM |
| O=C(Nc1ccc(Cn2ncc(N3CCCNCC3)c(Cl)c2=O)cc1)Nc1ccc(-c2ccccc2)cc1 | 815 nM | – |
| Cn1nc(-c2ccc(S(=O)(=O)NC3CCC(CN4CCC(c5c[nH]c6ccccc56)CC4)CC3)s2)cc1C(F)(F)F (stereo not given) | 835 nM | 820 nM |
| O=C1Nc2cccc3c2C1(CCCCN1CCC(c2cc4ccncc4[nH]2)CC1)CCC3 (stereo not given) | 911 nM | 787 nM |
| Cc1[nH]c2cc(F)ccc2c(=O)c1Cc1ccc(Cl)cc1.Cc1[nH]c2cccc(F)c2c(=O)c1Cc1ccc(Cl)cc1 | 232 nM | 348 nM |
| O=C(/C=C/c1cccc(F)c1)NC1CCC(CN2CCC(c3c[nH]c4ccccc34)CC2)CC1 (stereo not given) | 866 nM | 713 nM |
| O=C(/C=C/c1cccc(Cl)c1)NC1CCC(CN2CCC(c3c[nH]c4ccccc34)CC2)CC1 (stereo not given) | 721 nM | 752 nM |
| O=C(/C=C/c1ccc(Cl)cc1)NC1CCC(CN2CCC(c3c[nH]c4ccccc34)CC2)CC1 (stereo not given) | 800 nM | 727 nM |
| CC1=C(C(=O)NC2CCC(CN3CCC(c4c[nH]c5ccccc45)CC3)CC2)Cc2ccccc21 (stereo not given) | 833 nM | 996 nM |
| COc1cc(/C=C/C(=O)NC2CCC(CN3CCC(c4c[nH]c5ccccc45)CC3)CC2)ccc1O (stereo not given) | 791 nM | 809 nM |
| COc1cccc(/C=C/C(=O)NC2CCC(CN3CCC(c4c[nH]c5ccccc45)CC3)CC2)c1 (stereo not given) | 834 nM | 765 nM |
| Cc1ccc(CC(C)NCC(O)c2cccc(C(F)(F)F)c2)cc1 (stereo not given) | 709 nM | – |
| C[C@H](CNc1ccnc(Nc2ccc3[nH]c(=O)[nH]c3c2)n1)c1ccccc1 | 700 nM | – |
| CC(=O)Nc1ccc2[nH]cc(C3CCN(CC4CCC(NC(=O)/C=C/c5ccc(Cl)c(Cl)c5)CC4)CC3)c2c1 (stereo not given) | 441 nM | 719 nM |
| COc1ccc(C=CC(=O)NC2CCC(CN3CCC(c4c[nH]c5ccccc45)CC3)CC2)cc1 (stereo not given) | 807 nM | 782 nM |
| O=C(CCc1ccc(Cl)cc1Cl)NC1CCC(CN2CCC(c3c[nH]c4ccccc34)CC2)CC1 (stereo not given) | 216 nM and 903 nM | – |
| O=C(/C=C/c1ccc(Cl)c(Cl)c1)NCCCCCN1CCC(c2c[nH]c3ccccc23)C(O)C1 (stereo not given) | 819 nM | 795 nM |

| SMILES | XC50 | XC50 (Plasmodium falciparum, 3D7) |
| --- | --- | --- |
| FC(F)(F)c1ccc(NC(=S)NC2CCC(CN3CCC(c4c[nH]c5ccccc45)CC3)CC2)cc1 (stereo not given) | 726 nM | 392 nM |
| O=C(C=Cc1cccc(Cl)c1Cl)NC1CCC(CN2CCC(c3c[nH]c4ccccc34)CC2)CC1 (stereo not given) | 1140 nM | 680 nM |
| O=C(/C=C/c1ccc(C(F)(F)F)cc1)NC1CCC(CN2CCC(c3c[nH]c4ccccc34)CC2)CC1 (stereo not given) | 964 nM and 369 nM | – |
| N#Cc1c(Cl)cccc1Oc1ccc(S(=O)(=O)NC2CCC(CN3CCC(c4c[nH]c5ccccc45)CC3)CC2)cc1 (stereo not given) | 714 nM | 1070 nM |
| O=C(Nc1ccccc1Cl)NC1CCC(CN2CCC(c3c[nH]c4ccccc34)CC2)CC1 (stereo not given) | 753 nM | 803 nM |
| O=C(Nc1ccccc1C(F)(F)F)NC1CCC(CN2CCC(c3c[nH]c4ccccc34)CC2)CC1 (stereo not given) | 946 nM | 784 nM |
| O=C(/C=C/c1ccc(Cl)c(Cl)c1)NC1CCC(CN2CCC(c3c[nH]c4ccc(O)cc34)CC2)CC1 (stereo not given) | 417 nM and 140 nM | – |
| Cc1ccc2[nH]cc(C3CCN(CC4CCC(NC(=O)/C=C/c5ccc(Cl)c(Cl)c5)CC4)CC3)c2c1 (stereo not given) | 552 nM | 840 nM |
| O=C(/C=C/c1c(Cl)cccc1Cl)NC1CCC(CN2CCC(c3c[nH]c4ccccc34)CC2)CC1 (stereo not given) | 814 nM and 373 nM | – |
| NC(=O)c1ccc2[nH]cc(C3CCN(CC4CCC(NC(=O)/C=C/c5ccc(Cl)c(Cl)c5)CC4)CC3)c2c1 (stereo not given) | 867 nM | 761 nM |
| S=C(NCCc1ccc(Cl)cc1)NC1CCC(CN2CCC(c3c[nH]c4ccccc34)CC2)CC1 (stereo not given) | 703 nM | 703 nM |
| O=C(C=Cc1ccccc1C(F)(F)F)NC1CCC(CN2CCC(c3c[nH]c4ccccc34)CC2)CC1 (stereo not given) | 902 nM | 677 nM |
| O=C(C=Cc1ccc(F)c(Br)c1)NC1CCC(CN2CCC(c3c[nH]c4ccccc34)CC2)CC1 (stereo not given) | 842 nM | 789 nM |
| O=C(NC1CCC(CN2CCC(c3c[nH]c4ccccc34)CC2)CC1)c1cc2ccccc2s1 (stereo not given) | 725 nM | 729 nM |
| Cc1c(C)c2c(c(C)c1O)CC[C@](C)(C(=O)NC1CCC(CN3CCC(c4c[nH]c5ccccc45)CC3)CC1)O2 (stereo not given in full) | 1120 nM | 881 nM |
| O=C(Nc1cccc(-c2cccc(-c3nc4ccccc4[nH]3)c2)c1)NC1CC1c1ccccc1 (stereo not given) | 898 nM | 1070 nM |
| CC(C)(C)c1cc(/C=C/C(=O)NC2CCC(CN3CCC(c4c[nH]c5ccccc45)CC3)CC2)cc(C(C)(C)C)c1O (stereo not given) | 719 nM | 705 nM |
| Cc1cc(=O)c(-c2ccc(Oc3cccc(C(F)(F)F)c3)cc2)c(C)[nH]1 | 629 nM and 209 nM | – |
| O=C(/C=C/c1ccc(Cl)c(Cl)c1)NC1CCC(CN2CCC(c3c[nH]c4cc(C(F)(F)F)ccc34)CC2)CC1 (stereo not given) | 278 nM and 897 nM | – |
| S=C(Nc1ccc2c(c1)OCCO2)NC1CCC(CN2CCC(c3c[nH]c4ccccc34)CC2)CC1 (stereo not given) | 1000 nM | 653 nM |
| Cc1ccc(/C=C/C(=O)NC2CCC(CN3CCC(c4c[nH]c5ccccc45)CC3)CC2)cc1 (stereo not given) | 798 nM | 920 nM |
| CSc1nccc(-c2ccc(S(=O)(=O)NC3CCC(CN4CCC(c5c[nH]c6ccccc56)CC4)CC3)s2)n1 (stereo not given) | 811 nM and 254 nM | – |
| CN1CCC(N2CCN(Cc3cccc(-c4ccc(-c5nc6cc(C(F)(F)F)ccc6[nH]5)cc4)c3)CC2)CC1 | – | 140 nM |
| O=C(/C=C/c1ccccc1Cl)NC1CCC(CN2CCC(c3c[nH]c4ccccc34)CC2)CC1 (stereo not given) | 849 nM | 603 nM |
| O=C(/C=C/c1ccc(Cl)c(Cl)c1)NCCCCCN1C2CCC1CC(c1c[nH]c3ccc(O)cc13)C2 (stereo not given) | 879 nM | 998 nM |
| O=C(Nc1ccccc1OC(F)(F)F)NC1CCC(CN2CCC(c3c[nH]c4ccccc34)CC2)CC1 (stereo not given) | 369 nM and 800 nM | – |
| O=C(C=Cc1ccccc1Br)NC1CCC(CN2CCC(c3c[nH]c4ccccc34)CC2)CC1 (stereo not given) | 687 nM | 737 nM |

| SMILES | XC50 | XC50 (Plasmodium falciparum, 3D7) |
| --- | --- | --- |
| O=C(C=C1c2ccccc2-c2ccccc21)NC1CCC(CN2CCC(c3c[nH]c4ccccc34)CC2)CC1 (stereo not given) | 697 nM | 795 nM |
| COC(=O)c1sccc1NC(=S)NC1CCC(CN2CCC(c3c[nH]c4ccccc34)CC2)CC1 (stereo not given) | 574 nM | 915 nM |
| O=C(/C=C/c1ccccc1O)NC1CCC(CN2CCC(c3c[nH]c4ccccc34)CC2)CC1 (stereo not given) | 461 nM | 756 nM |
| COc1ccc(C=CC(=O)NC2CCC(CN3CCC(c4c[nH]c5ccccc45)CC3)CC2)cc1OC (stereo not given) | 841 nM | 801 nM |
| O=C(Nc1cc(C(F)(F)F)cc(C(F)(F)F)c1)NC1CCC(CN2CCC(c3c[nH]c4ccccc34)CC2)CC1 (stereo not given) | 461 nM | 810 nM |
| COc1ccc(-c2ccccc2)cc1NC(=S)NC1CCC(CN2CCC(c3c[nH]c4ccccc34)CC2)CC1 (stereo not given) | 740 nM | 652 nM |
| O=C(C=Cc1ccc(-c2ccccc2)cc1)NC1CCC(CN2CCC(c3c[nH]c4ccccc34)CC2)CC1 (stereo not given) | 807 nM | 738 nM |
| COC(=O)c1ccc(CC(C)NCC(O)c2cccc(C(F)(F)F)c2)cc1 (stereo not given) [listing 1 of 2 here] | 765 nM | – |
| Oc1cccc(-c2nc3cc(C4=NC5CCCCC5N4)ccc3[nH]2)c1 (stereo not given) | 530 nM | – |
| N#CCCN1CCN(Cc2cccc(-c3ccc(-c4nc5cc(C(F)(F)F)ccc5[nH]4)cc3)c2)CC1 | – | 744 nM |
| O=C(NCCCCN1CCCC2c3ccc(O)cc3CCC21)c1ccc(-c2ccccc2)cc1 (stereo not given) | 945 nM | 732 nM |
| CCCCCCOc1ccc(/C(N)=N\Cc2ccccc2)c2c1CCCC2 | – | 1270 nM |
| CC(C)CCNC(=O)C1Cc2c([nH]c3ccc(Br)cc23)C2(CCN(Cc3ccccc3)CC2)N1 (stereo not given) | – | 817 nM |
| COc1ccc2nccc([C@@H](O)CN3CCC(NCc4nc5c(cc4Cl)SCC(=O)N5)C(F)C3)c2c1 (stereo not given in full) | 759 nM | 505 nM |
| COC(=O)/C=C/c1ccc(CC(C)NCC(O)c2cccc(C(F)(F)F)c2)cc1 (stereo not given) | 775 nM | – |
| COc1ccc(CCn2c(=N)c(C(=O)NCc3cccnc3)cc3c(=O)n4ccccc4nc32)cc1 | – | 883 nM |
| Cc1ccc(/C=C/C(=O)NC2CCC(CN3CCC(c4c[nH]c5ccccc45)CC3)CC2)cc1C (stereo not given) | 821 nM | 832 nM |
| O=C(/C=C/c1cccc2ccccc12)NC1CCC(CN2CCC(c3c[nH]c4ccccc34)CC2)CC1 (stereo not given) | 745 nM | 666 nM |
| COc1ccc2ncc(F)c(CCN3CC(O)C(CNCc4nc5c(cc4Cl)OCC(=O)N5)C3)c2n1 (stereo not given) | 1280 nM and 954 nM | 830 nM |
| Cc1ccc(C)c(C=CC(=O)NC2CCC(CN3CCC(c4c[nH]c5ccccc45)CC3)CC2)c1 (stereo not given) | 698 nM | 765 nM |
| COc1ccc(C[C@@H](C)NC[C@H](O)c2cccc(Cl)c2)cc1F | 992 nM | – |
| COC(=O)/C=C/c1ccc(CC(C)NCC(O)c2cccc(Cl)c2)cc1 (stereo not given) | – | 751 nM |
| COC(=O)c1ccc(CC(C)NCC(O)c2cccc(C(F)(F)F)c2)cc1 (stereo not given) [listing 2 of 2 here] | 974 nM | 1150 nM |
| Cc1ccc(CC(C)NC[C@H](O)c2cccc(Cl)c2)cc1 (stereo not given in full) | 927 nM | – |
| NC1=NC(c2ccccc2)(c2cccc(O)c2)C(=O)N1CCCc1ccccc1 (stereo not given) | 836 nM | 1230 nM |
